Where two headings read alike, the source gives them in different places.
Key:
Cytotoxicity assay [1] = assay type: cell-based, human; conditions: human, CEM cells (T-lymphoblast leukemia)
CCR4 = target: T1, CCR4 (Homo sapiens, UniProt P51679); assay: CCR4 radioligand binding assay; conditions: for selective index CCR4: selectivity for CXCR4 binding versus CCR4
T1 sequence (P51679 1-360): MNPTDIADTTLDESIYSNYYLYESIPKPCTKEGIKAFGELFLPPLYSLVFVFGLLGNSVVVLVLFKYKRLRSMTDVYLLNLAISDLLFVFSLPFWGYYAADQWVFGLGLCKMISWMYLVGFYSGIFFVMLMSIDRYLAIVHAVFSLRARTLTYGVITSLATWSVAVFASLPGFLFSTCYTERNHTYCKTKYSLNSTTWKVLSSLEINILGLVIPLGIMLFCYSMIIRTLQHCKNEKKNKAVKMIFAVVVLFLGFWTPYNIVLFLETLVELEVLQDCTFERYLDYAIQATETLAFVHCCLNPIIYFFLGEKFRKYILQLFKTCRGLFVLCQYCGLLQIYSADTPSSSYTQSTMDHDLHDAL

HIV-1 IIIB = assay: Luciferase activity assay of HIV-1 infectivity in TZM-bl cells; assay type: cell-based; conditions: read-out: Anti-HIV EC50; TZM-bl cells, HIV-1 IIIB, M.O.I. 1
CCR2 = CCR2 (Homo sapiens, UniProt P41597); assay: CCR2 radioligand binding assay; conditions: for selective index CCR2: selectivity for CXCR4 binding versus CCR2
hCXCR4 = hCXCR4 (Homo sapiens, UniProt P61073); assay: Radioligand [125I]SDF-1α binding to hCXCR4-transfected HEK293 membrane
CCR5 = CCR5 (Homo sapiens, UniProt P51681); assay: CCR5 radioligand binding assay; conditions: for selective index CCR5: selectivity for CXCR4 binding versus CCR5
CXCR2 = target: T2, CXCR2 (Homo sapiens, UniProt P25025); assay: CXCR2 radioligand binding assay; conditions: for selective index CXCR2: selectivity for CXCR4 binding versus CXCR2
T2 sequence (P25025 1-360): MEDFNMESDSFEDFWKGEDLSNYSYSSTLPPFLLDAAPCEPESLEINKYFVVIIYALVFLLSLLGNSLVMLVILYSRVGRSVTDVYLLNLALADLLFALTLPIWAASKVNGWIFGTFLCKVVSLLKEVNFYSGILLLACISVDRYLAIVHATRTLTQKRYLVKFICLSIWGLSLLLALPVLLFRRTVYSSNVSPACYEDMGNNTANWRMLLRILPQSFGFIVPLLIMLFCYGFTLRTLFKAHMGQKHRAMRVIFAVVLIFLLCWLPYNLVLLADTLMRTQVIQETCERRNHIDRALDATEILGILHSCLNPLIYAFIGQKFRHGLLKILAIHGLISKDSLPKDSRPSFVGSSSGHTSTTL

Cytotoxicity assay [2] = assay type: cell-based; conditions: human, TZM-bl cells
CEM cells = assay: Cytotoxicity assay; assay type: cell-based, human
HIV-1 = conditions: 0 to 20 nM
[3] = test system: CCRF-CEM cells that express endogenous human CXCR4; conditions: read-out: IC50 to block SDF-1α-induced CEM migration, 10 nM SDF-1, 2.5 h
TZM-bl cells = assay: Cytotoxicity assay; assay type: cell-based
CXCR7 = CXCR7 (Homo sapiens, UniProt P25106); assay type: cell-based
CXCR7, sequence (P25106 whole entry): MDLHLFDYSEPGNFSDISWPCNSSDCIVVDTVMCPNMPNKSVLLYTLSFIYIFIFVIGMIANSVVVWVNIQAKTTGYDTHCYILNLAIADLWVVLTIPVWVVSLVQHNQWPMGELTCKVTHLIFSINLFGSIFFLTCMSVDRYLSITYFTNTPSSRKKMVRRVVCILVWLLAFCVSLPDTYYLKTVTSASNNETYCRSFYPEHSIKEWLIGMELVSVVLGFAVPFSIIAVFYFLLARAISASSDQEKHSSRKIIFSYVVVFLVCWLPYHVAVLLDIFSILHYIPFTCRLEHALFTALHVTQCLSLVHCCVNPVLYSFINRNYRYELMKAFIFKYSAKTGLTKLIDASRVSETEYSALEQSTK

CCR2, sequence (P41597 whole entry, species assumed): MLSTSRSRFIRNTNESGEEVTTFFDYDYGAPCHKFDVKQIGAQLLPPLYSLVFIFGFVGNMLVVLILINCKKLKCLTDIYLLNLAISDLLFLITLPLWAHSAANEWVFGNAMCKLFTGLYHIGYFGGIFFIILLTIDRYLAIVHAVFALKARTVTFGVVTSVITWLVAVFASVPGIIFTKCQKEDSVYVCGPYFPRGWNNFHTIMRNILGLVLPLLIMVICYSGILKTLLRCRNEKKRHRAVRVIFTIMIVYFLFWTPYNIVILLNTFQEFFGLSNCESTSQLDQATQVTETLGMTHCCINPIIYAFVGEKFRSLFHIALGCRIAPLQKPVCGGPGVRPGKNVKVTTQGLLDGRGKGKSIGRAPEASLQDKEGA
CCR5, sequence (P51681 whole entry, species assumed): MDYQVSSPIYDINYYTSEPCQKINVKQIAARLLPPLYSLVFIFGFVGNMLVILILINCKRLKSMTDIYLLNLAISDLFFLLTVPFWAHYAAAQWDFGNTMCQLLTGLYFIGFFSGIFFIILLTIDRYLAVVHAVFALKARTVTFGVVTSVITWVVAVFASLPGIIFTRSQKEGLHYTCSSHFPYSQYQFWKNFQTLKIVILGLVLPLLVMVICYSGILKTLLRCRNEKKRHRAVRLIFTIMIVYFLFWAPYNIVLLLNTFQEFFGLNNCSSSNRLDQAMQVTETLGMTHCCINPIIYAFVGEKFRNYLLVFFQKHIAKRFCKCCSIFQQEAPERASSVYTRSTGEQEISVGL
hCXCR4, sequence (P61073 whole entry): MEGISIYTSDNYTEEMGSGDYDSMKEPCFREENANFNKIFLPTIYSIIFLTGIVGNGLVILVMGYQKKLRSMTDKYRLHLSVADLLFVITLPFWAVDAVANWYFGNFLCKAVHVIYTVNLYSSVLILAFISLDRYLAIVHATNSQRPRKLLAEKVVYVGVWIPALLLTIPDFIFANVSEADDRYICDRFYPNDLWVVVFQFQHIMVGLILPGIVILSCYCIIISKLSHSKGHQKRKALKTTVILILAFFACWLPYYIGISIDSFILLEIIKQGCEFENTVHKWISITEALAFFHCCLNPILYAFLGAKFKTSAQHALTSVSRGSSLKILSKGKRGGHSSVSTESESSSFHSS

Work on `c1cc(CNCCCNC2CCCCC2)cc(CNc2nc(N3CCNCC3)nc3[nH]cnc23)c1` [Compound 25, N-Cyclohexyl-N′-{3-[(2-piperazin-1-yl-9H-purin-6-ylamino)-methyl]-benzyl}-propane-1,3-diamine] yielded a CC50 at 72 h (Cytotoxicity assay [1]) greater than 50 µM, a selectivity ratio at 72 h (Cytotoxicity assay [1]) greater than 83300 and an IC50 (CCR4) greater than 10 µM. For the same molecule, the inhibition at 10 µM (CCR4; read-out: inhibition (%) CCR4) was 0%, the “selective index CCR4” value (CCR4) was greater than 2380 and the EC50 (HIV-1 IIIB) was 0.00061 ± 0.00027 µM. For the same molecule, the IC50 (CCR2) was greater than 10 µM, the inhibition at 10 µM (CCR2; read-out: inhibition (%) CCR2) was 2% and the “selective index CCR2” value (CCR2) was greater than 2380. For the same molecule, the inhibition at 10 µM (hCXCR4; read-out: inhibition (%) CXCR4) was 100%, the “fold increase in CXCR4 binding affinity compared to compound 24” value (hCXCR4; relative to compound 24) was 4 fold and the IC50 (CCR5) was greater than 10 µM. For the same molecule, the inhibition at 10 µM (CCR5; read-out: inhibition (%) CCR5) was 14%, the “selective index CCR5” value (CCR5) was greater than 2380 and the IC50 (CXCR2) was greater than 10 µM. The inhibition at 10 µM (CXCR2; read-out: inhibition (%) CXCR2) was 12%, the “selective index CXCR2” value (CXCR2) was greater than 2380 and the CC50 at 72 h (Cytotoxicity assay [2]) was greater than 50 µM. For the same molecule, the selectivity ratio at 72 h (Cytotoxicity assay [2]) was greater than 83300.

For `c1nc2c(NCc3ccc(CCNCCCNC4CCCCC4)cc3)nc(N3CCNCC3)nc2[nH]1` [Compound 24, N-Cyclohexyl-N′-(2-{4-[(2-piperazin-1-yl-9H-purin-6-ylami-no)-methyl]-phenyl}-ethyl)-propane-1,3-diamine], the “Selective Index CC50/EC50 CEM” value (CEM cells; CC50 (CEM) / anti-HIV EC50) was greater than 98039, the CC50 (CEM cells; read-out: Cytotoxicity CC50 CEM, CEM cells, 72 h) was greater than 50 µM and the “inhibition (%) CCR4” value (CCR4; at 10 μM) was 11%. The IC50 (CCR4; read-out: IC50 CCR4) was greater than 10 µM, the “selective index CCR4” value (CCR4) was greater than 609 and the EC50 (HIV-1 IIIB) was 0.00051 ± 2e-05 µM. For the same molecule, the “inhibition (%) CCR2” value (CCR2; at 10 μM) was 10%, the IC50 (CCR2; read-out: IC50 CCR2) was greater than 10 µM and the “selective index CCR2” value (CCR2) was greater than 609. For the same molecule, the “inhibition (%) CXCR4” value (hCXCR4; at 10 μM) was 100%, the “fold increase in CXCR4 binding affinity compared to AMD3100” value (hCXCR4; relative to AMD3100) was 13 fold and the “fold increase in CXCR4 binding affinity compared to compound 4” value (hCXCR4; relative to compound 4) was 2.2 fold. For the same molecule, the “anti-HIV activity, time of addition” value (HIV-1; added 3 h after HIV-1 infection) was “significantly reduced”, the “anti-HIV activity, time of addition” value (HIV-1; added 3 h before or simultaneously with HIV-1 infection) was “maintained its potent anti-HIV activity” and the IC50 [3] was 0.0031 µM. For the same molecule, the “inhibition (%) CCR5” value (CCR5; at 10 μM) was 15%, the IC50 (CCR5; read-out: IC50 CCR5) was greater than 10 µM and the “selective index CCR5” value (CCR5) was greater than 609. The “inhibition (%) CXCR2” value (CXCR2; at 10 μM) was 16%, the IC50 (CXCR2; read-out: IC50 CXCR2) was greater than 10 µM and the “selective index CXCR2” value (CXCR2) was greater than 609. The “Selective Index CC50/EC50 TZM-bl” value (TZM-bl cells; CC50 (TZM-bl) / anti-HIV EC50) was greater than 98039, the CC50 (TZM-bl cells; read-out: Cytotoxicity CC50 TZM-bl, TZM-bl cells, 72 h) was greater than 50 µM and the “functional selectivity over CXCR4-dependent HIV entry inhibition” value (CXCR7; CXCR7 β-arrestin assay versus HIV entry inhibition) was greater than 1960 fold. The “antagonism of SDF-1α binding to CXCR7 or triggering of β-arrestin recruitment” value (CXCR7; even at a 40-fold higher SDF-1α concentration) was “did not antagonize”.

From PMC4823997 (Journal of medicinal chemistry, 2015)
